Literature values in patent US9149436B2, “Pharmaceutical product comprising a sequestered agent” (Purdue Pharma L.P., priority 2003, dated 2015).

Conditions: after oral doses

SMILES	duration of action [h]
C[C@H]1[C@H]2Cc3ccc(O)cc3[C@]1(C)CCN2CC1CC1 [cyclazocine]	~24
O=C1CC[C@@]2(O)[C@H]3Cc4ccc(O)c5c4[C@@]2(CCN3CC2CC2)[C@H]1O5 [naltrexone]	~24
